Measured values from ChEMBL document CHEMBL1133109, “Design, synthesis, and pharmacological characterization of 4-[4, 4-dimethyl-3-(4-hydroxybutyl)-5-oxo-2-thioxo-1-imidazolidinyl]- 2-iodobenzonitrile as a high-affinity nonsteroidal androgen receptor ligand” (J Med Chem, 2000).

target: T1, Androgen receptor (Rattus norvegicus, UniProt P15207)
T1 sequence (P15207 whole entry): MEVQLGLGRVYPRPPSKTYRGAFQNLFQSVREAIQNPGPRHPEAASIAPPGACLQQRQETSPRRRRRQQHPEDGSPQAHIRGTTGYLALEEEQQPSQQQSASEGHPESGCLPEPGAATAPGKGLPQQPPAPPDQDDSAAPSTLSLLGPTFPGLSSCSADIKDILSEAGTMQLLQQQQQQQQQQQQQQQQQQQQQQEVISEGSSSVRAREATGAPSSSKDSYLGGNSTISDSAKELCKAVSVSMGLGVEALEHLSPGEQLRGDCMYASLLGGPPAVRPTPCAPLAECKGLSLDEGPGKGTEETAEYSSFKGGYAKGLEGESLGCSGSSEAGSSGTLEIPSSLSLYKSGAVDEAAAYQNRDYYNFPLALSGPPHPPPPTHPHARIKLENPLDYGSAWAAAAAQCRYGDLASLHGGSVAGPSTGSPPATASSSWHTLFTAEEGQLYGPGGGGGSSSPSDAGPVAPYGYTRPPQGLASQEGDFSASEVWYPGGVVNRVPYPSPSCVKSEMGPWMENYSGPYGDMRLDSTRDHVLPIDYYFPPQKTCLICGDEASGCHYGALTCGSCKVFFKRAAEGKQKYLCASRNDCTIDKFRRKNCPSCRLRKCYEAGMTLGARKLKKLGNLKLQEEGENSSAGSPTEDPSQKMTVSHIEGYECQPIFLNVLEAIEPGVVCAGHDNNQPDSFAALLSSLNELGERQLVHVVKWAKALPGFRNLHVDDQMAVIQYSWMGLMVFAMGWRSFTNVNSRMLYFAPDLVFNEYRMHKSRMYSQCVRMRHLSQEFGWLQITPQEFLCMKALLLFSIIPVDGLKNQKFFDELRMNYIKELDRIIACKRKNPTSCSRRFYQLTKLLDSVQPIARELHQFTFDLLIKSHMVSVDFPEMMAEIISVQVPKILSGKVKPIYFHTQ
Description: Inhibitory constant against rat prostate cytosol androgen receptor using [3H]mibolerone

Question: For CC1(C)C(=O)N(c2ccc(C#N)c(C(F)(F)F)c2)C(=S)N1CCCCO, which Ki is on record?
Answer: 2.23 nM

Question: How did the Ki turn out when CC1(C)C(=O)N(c2ccc(C#N)c(I)c2)C(=S)N1CCCCO was run?
Answer: 0.71 nM

Question: C[C@@H]1CC2=CC(=O)CC[C@@H]2[C@H]2CC[C@@]3(C)[C@@H](CC[C@]3(C)O)[C@@H]21 [MIBOLERONE] was tested. Which Ki did it give?
Answer: 0.75 nM
